In ChEMBL document CHEMBL4346705, “(±)-trans-Dihydronarciclasine and (±)-trans-dihydrolycoricidine analogues modified in their ring A: Evaluation of their anticancer activity and a SAR study” (2019):

Columns and labels:
Type in all cases: functional
K562 = assay: Antiproliferative activity against human K562 cells assessed as cell viability at 10^-5 M incubated for 48 hrs by sulforhodamine B assay relative to control; details: K562, 48 h, read-out: Activity
SF-295 = assay: Antiproliferative activity against human SF295 cells assessed as cell viability at 10^-5 M incubated for 48 hrs by sulforhodamine B assay relative to control; details: SF-295, 48 h, read-out: Activity
A498 = assay: Antiproliferative activity against human A498 cells assessed as cell viability at 10^-5 M incubated for 48 hrs by sulforhodamine B assay relative to control; details: A498, 48 h, read-out: Activity
NCI/ADR-RES = assay: Antiproliferative activity against human NCI-ADR-RES cells assessed as cell viability at 10^-5 M incubated for 48 hrs by sulforhodamine B assay relative to control; details: read-out: Activity
TK-10 = assay: Antiproliferative activity against human TK10 cells assessed as cell viability at 10^-5 M incubated for 48 hrs by sulforhodamine B assay relative to control; details: TK-10, 48 h, read-out: Activity
MOLT-4 = assay: Antiproliferative activity against human MOLT4 cells assessed as cell viability at 10^-5 M incubated for 48 hrs by sulforhodamine B assay relative to control; details: MOLT-4, 48 h, read-out: Activity
UO-31 = assay: Antiproliferative activity against human UO31 cells assessed as cell viability at 10^-5 M incubated for 48 hrs by sulforhodamine B assay relative to control; details: UO-31, 48 h, read-out: Activity
OVCAR-5 = assay: Antiproliferative activity against human OVCAR5 cells assessed as cell viability at 10^-5 M incubated for 48 hrs by sulforhodamine B assay relative to control; details: OVCAR-5, 48 h, read-out: Activity
Hs-578T = assay: Antiproliferative activity against human Hs 578T cells assessed as cell viability at 10^-5 M incubated for 48 hrs by sulforhodamine B assay relative to control; details: read-out: Activity
ACHN = assay: Antiproliferative activity against human ACHN cells assessed as cell viability at 10^-5 M incubated for 48 hrs by sulforhodamine B assay relative to control; details: read-out: Activity
HCC 2998 = assay: Antiproliferative activity against human HCC2998 cells assessed as cell viability at 10^-5 M incubated for 48 hrs by sulforhodamine B assay relative to control; details: HCC 2998, 48 h, read-out: Activity
SK-OV-3 = assay: Antiproliferative activity against human SKOV3 cells assessed as cell viability at 10^-5 M incubated for 48 hrs by sulforhodamine B assay relative to control; details: SK-OV-3, 48 h, read-out: Activity
SNB-75 = assay: Antiproliferative activity against human SNB75 cells assessed as cell viability at 10^-5 M incubated for 48 hrs by sulforhodamine B assay relative to control; details: SNB-75, 48 h, read-out: Activity
OVCAR-3 = assay: Antiproliferative activity against human OVCAR3 cells assessed as cell viability at 10^-5 M incubated for 48 hrs by sulforhodamine B assay relative to control; details: OVCAR-3, 48 h, read-out: Activity
PC-3 = assay: Antiproliferative activity against human PC3 cells assessed as cell viability at 10^-5 M incubated for 48 hrs by sulforhodamine B assay relative to control; details: PC-3, 48 h, read-out: Activity
COLO 205 = assay: Antiproliferative activity against human COLO205 cells assessed as cell viability at 10^-5 M incubated for 48 hrs by sulforhodamine B assay relative to control; details: COLO 205, 48 h, read-out: Activity
SF-539 = assay: Antiproliferative activity against human SF539 cells assessed as cell viability at 10^-5 M incubated for 48 hrs by sulforhodamine B assay relative to control; details: SF-539, 48 h, read-out: Activity
SW-620 = assay: Antiproliferative activity against human SW620 cells assessed as cell viability at 10^-5 M incubated for 48 hrs by sulforhodamine B assay relative to control; details: SW-620, 48 h, read-out: Activity
SK-MEL-2 = assay: Antiproliferative activity against human SK-MEL-2 cells assessed as cell viability at 10^-5 M incubated for 48 hrs by sulforhodamine B assay relative to control; details: SK-MEL-2, 48 h, read-out: Activity
MCF7 = assay: Antiproliferative activity against human MCF7 cells assessed as cell viability at 10^-5 M incubated for 48 hrs by sulforhodamine B assay relative to control; details: MCF7, 48 h, read-out: Activity
HOP-92 = assay: Antiproliferative activity against human HOP92 cells assessed as cell viability at 10^-5 M incubated for 48 hrs by sulforhodamine B assay relative to control; details: HOP-92, 48 h, read-out: Activity
M14 = assay: Antiproliferative activity against human M14 cells assessed as cell viability at 10^-5 M incubated for 48 hrs by sulforhodamine B assay relative to control; details: M14, 48 h, read-out: Activity
NCI-H322M = assay: Antiproliferative activity against human NCI-H322M cells assessed as cell viability at 10^-5 M incubated for 48 hrs by sulforhodamine B assay relative to control; details: read-out: Activity
CAKI-1 = assay: Antiproliferative activity against human Caki1 cells assessed as cell viability at 10^-5 M incubated for 48 hrs by sulforhodamine B assay relative to control; details: CAKI-1, 48 h, read-out: Activity
OVCAR-4 = assay: Antiproliferative activity against human OVCAR4 cells assessed as cell viability at 10^-5 M incubated for 48 hrs by sulforhodamine B assay relative to control; details: OVCAR-4, 48 h, read-out: Activity
SN12C = assay: Antiproliferative activity against human SN12C cells assessed as cell viability at 10^-5 M incubated for 48 hrs by sulforhodamine B assay relative to control; details: read-out: Activity
HT-29 = assay: Antiproliferative activity against human HT-29 cells assessed as cell viability at 10^-5 M incubated for 48 hrs by sulforhodamine B assay relative to control; details: HT-29, 48 h, read-out: Activity
MDA-MB-435 = assay: Antiproliferative activity against human MDA-MB-435 cells assessed as cell viability at 10^-5 M incubated for 48 hrs by sulforhodamine B assay relative to control; details: MDA-MB-435, 48 h, read-out: Activity
RXF 393 = assay: Antiproliferative activity against human RXF393 cells assessed as cell viability at 10^-5 M incubated for 48 hrs by sulforhodamine B assay relative to control; details: RXF 393, 48 h, read-out: Activity
LOX IMVI = assay: Antiproliferative activity against human LOXIMVI cells assessed as cell viability at 10^-5 M incubated for 48 hrs by sulforhodamine B assay relative to control; details: read-out: Activity
T47D = assay: Antiproliferative activity against human T47D cells assessed as cell viability at 10^-5 M incubated for 48 hrs by sulforhodamine B assay relative to control; details: read-out: Activity
SK-MEL-5 = assay: Antiproliferative activity against human SK-MEL-5 cells assessed as cell viability at 10^-5 M incubated for 48 hrs by sulforhodamine B assay relative to control; details: SK-MEL-5, 48 h, read-out: Activity

SMILES	viability at 10 µM (K562) [%]	viability at 10 µM (SF-295) [%]	viability at 10 µM (A498) [%]	viability at 10 µM (NCI/ADR-RES) [%]	viability at 10 µM (TK-10) [%]	viability at 10 µM (MOLT-4) [%]	viability at 10 µM (UO-31) [%]	viability at 10 µM (OVCAR-5) [%]	viability at 10 µM (Hs-578T) [%]	viability at 10 µM (ACHN) [%]	viability at 10 µM (HCC 2998) [%]	viability at 10 µM (SK-OV-3) [%]	viability at 10 µM (SNB-75) [%]	viability at 10 µM (OVCAR-3) [%]	viability at 10 µM (PC-3) [%]	viability at 10 µM (COLO 205) [%]	viability at 10 µM (SF-539) [%]	viability at 10 µM (SW-620) [%]	viability at 10 µM (SK-MEL-2) [%]	viability at 10 µM (MCF7) [%]	further results
COc1cc2c(c3c1OCCO3)C(=O)NC1C2CC(O)C(O)C1O (racemic)	106	104	100	111	98	105	89.8	103	99.8	108	99.9	104	100	101	95.3	111	105	107	110	97.3	viability at 10 µM (HOP-92): 77.7%; viability at 10 µM (M14): 104%; viability at 10 µM (NCI-H322M): 97.3%; viability at 10 µM (CAKI-1): 93.4%; viability at 10 µM (OVCAR-4): 108%; viability at 10 µM (SN12C): 99.8%; viability at 10 µM (HT-29): 102%; viability at 10 µM (MDA-MB-435): 110%; viability at 10 µM (RXF 393): 106%; viability at 10 µM (LOX IMVI): 101%; viability at 10 µM (T47D): 87.9%; viability at 10 µM (SK-MEL-5): 101%
CCOc1cc2c(cc1OCC)C1CC(O)C(O)C(O)C1NC2=O (racemic)	88.4	94.9	111	101	118	96.5	76.4	101	99.6	101	106	95.9	98.9	107	92.8	106	98	99.4	100	94.4	viability at 10 µM (HOP-92): 102%; viability at 10 µM (M14): 99.1%; viability at 10 µM (NCI-H322M): 95.2%; viability at 10 µM (CAKI-1): 87%; viability at 10 µM (OVCAR-4): 107%; viability at 10 µM (SN12C): 100%; viability at 10 µM (HT-29): 106%; viability at 10 µM (MDA-MB-435): 109%; viability at 10 µM (RXF 393): 105%; viability at 10 µM (LOX IMVI): 92.8%; viability at 10 µM (T47D): 90.2%; viability at 10 µM (SK-MEL-5): 99.6%
CCOc1cc2c(c(OCC)c1OCC)C(=O)NC1C2CC(O)C(O)C1O (racemic)	98.4	100	102	108	98.5	99.2	88.4	104	99.1	105	107	105	93	104	89.4	115	97	107	99.2	95.6	viability at 10 µM (HOP-92): 82.8%; viability at 10 µM (M14): 103%; viability at 10 µM (NCI-H322M): 97.8%; viability at 10 µM (CAKI-1): 94.2%; viability at 10 µM (OVCAR-4): 105%; viability at 10 µM (SN12C): 108%; viability at 10 µM (HT-29): 104%; viability at 10 µM (MDA-MB-435): 104%; viability at 10 µM (RXF 393): 110%; viability at 10 µM (LOX IMVI): 98.7%; viability at 10 µM (T47D): 100%; viability at 10 µM (SK-MEL-5): 107%
CCOc1c(OC)cc2c(c1O)C(=O)NC1C2CC(O)C(O)C1O (racemic)	91.2	102	99.5	110	93.9	92.4	92.9	98.7	100	103	102	98.1	93.5	102	100	115	97.7	107	106	92.1	viability at 10 µM (HOP-92): 85.2%; viability at 10 µM (M14): 105%; viability at 10 µM (NCI-H322M): 103%; viability at 10 µM (CAKI-1): 91.3%; viability at 10 µM (OVCAR-4): 107%; viability at 10 µM (SN12C): 104%; viability at 10 µM (HT-29): 100%; viability at 10 µM (MDA-MB-435): 108%; viability at 10 µM (RXF 393): 109%; viability at 10 µM (LOX IMVI): 98.1%; viability at 10 µM (T47D): 92.8%; viability at 10 µM (SK-MEL-5): 101%
